Measured values taken from US20230115675A1, “METHODS OF TREATING CANCER” (The Broad Institute, Inc., priority 2020, published 2023).
Read-outs that look alike come from different tables or passages of the source.

Assays:
MON cells = test: Viability after treatment with drugs in the presence of metal salts; assay type: cell-based; settings: for cell death promoted by Zinc: 10 μM ZnCl2
Description: Metal binding compounds can induce a toxic phenotype either by sequestration (chelation) of metals from essential factors or by shuttling (e.g., an ionophore) of metals to cellular compartments where they are toxic.
The viability of MON cells was measured following treatment with increasing doses of indicated drugs in the presence of 10 μM FeCl2, FeCl3, ZnCl2, NiCl, CuCl2, or CoCl2 (FIG. 13). The viability of NCIH2030 cells was measured following treatment with increasing doses of indicated drugs in the presence of 10 μM FeCl2, FeCl3, ZnCl2, NiCl, CuCl2, or CoCl2 (FIG. 14).

143B rho0 cells = test: Viability of 143B and 143B Rho0 cells; assay type: cell-based; settings: 72 hours
Description: (§1) To establish if this effect is mediated by the electron transfer chain (ETC), 143B rho0 cells (lacking mitochondrial DNA) and their parental controls (143B) were tested.

NCHIH2030 cells = test: Viability in media containing glucose or galactose; assay type: cell-based; settings: glucose replaced with galactose in the media
Description: FIG. 32G-L show exemplary viability results of NCHIH2030 cells grown in the presence of 10 mM glucose or 10 mM galactose in the media after 72 hours (Pyrithione-Cu is Pyrithione-CuCl2 (1:1); TMT-Cu is TMT-CuCl2 (1:1); 8HQ-Cu is 8-HQ-CuCl2 (1:1); Disulfiram-Cu is Disulfiram-CuCl2 (1:1); NSC319726-Cu is NSC319726-Cu Cl2 1(1:1); AntiA is Antimycin A).
as §1

A549 cell lines = test: Whole genome CRISPR/Cas9 deletion screens with copper bound ionophores; assay type: cell-based; settings: positive selection
Description: These genes included FDX1, protein lipoylation enzymes (LIAS, LIPT1, and DLD) and subunits of the lipoylated protein complex pyruvate dehydrogenase (DLAT, PDHA1, and PDHB).
FIG. 54A-E show exemplary plots of the log fold change versus the calculated p-value of FDX1 (A), DLAT (B), DLD (C) and LIAS (D) genes from the two whole genome CRISPR/Cas9 deletion screens in A549 cell lines for two concentrations of elesclomol-Cu (40 nM and 100 nM). (E) The correlation scores of FDX1 mRNA expression with the viability of 724 cancer cell lines as previously determined (4) for the different concentrations of elesclomol.

tumors = test: Lipoic acid staining as biomarker of sensitivity
Description: Lipoic acid was stained in FDX1 KO cells by an immunohistochemistry assay.

ABC1 cells = test: Elesclomol sensitivity of single cell clones with AAVS1 or FDX1 deletion; assay type: cell-based; settings: in the presence of 1 uM CuCl2
[1] = tested on: multiple cell line models; test: Elesclomol-induced cell death depending on copper availability (supplementation, TTM chelation, serum); assay type: cell-based
Description: The sensitivity of cells to elesclomol is dependent on copper availability. […] Copper is not supplemented in the media (RPMI) and therefore the availability of copper is restricted to the abundance of copper in serum, which can strongly vary. […] Thus, the efficacy of elesclomol is dependent on extracellular and intracellular copper availability.

A549 cells = test: Viability after FDX1 or LIAS gene deletion; assay type: cell-based
Description: It has been previously shown that ferredoxin 1 (FDX1) is an important mediator of elesclomol-induced toxicity. […] To better understand the potential downstream mediators of cuproptosis, a CRISPR/Cas9 deletion strategy was used. […] In all conditions, FDX1 gene was the highest scoring hit, emphasizing the importance of this gene in elesclomol mediated toxicity (FIG. 33). […] The lipoic acid pathway mediates the lysine lipoylation of specific enzymes (DLAT, DLST, DBT, GCSH) that is crucial for their function (FIG. 34). […] This hypothesis was particularly appealing as lipoylation is required for mitochondrial respiration and lipoic acid has shown to have a high affinity binding to copper.

[2] = cited from earlier work
Biomarker-positive cells = test: Cell culture washout (short exposure mimicking PK); assay type: cell-based; settings: for sensitivity of biomarker-positive cells: high FDX1 expression vs biomarker negative
Description: […] Panels D and Panel E show the relative changes in metabolites as measured in ABC1(D) and A549 (E) 24 hours after a 2 hour pulse treatment with 100 nM elesclomol.
Biomarker-positive cells are sensitive to elesclomol-Cu(II) treatment corresponding to measured concentrations and kinetics measured in mice pharmokinetic (PK) studies.
Study simulates short exposure time that mimics the pharmokinetic (PK) properties of elesclomol-Cu(II).
Data supports Cmax driven activity profile. Cells will be used to establish a SubQ xenograft model where different copper ionophores could be analyzed for their efficacy.

[3] = Tsvetkov et al., Nat Chem Bio, 2019; cited from earlier work
FDX1 = biological target: T1, FDX1 (Homo sapiens, UniProt P10109); settings: cited from earlier work; for binding to FDX1: previously shown
T1 sequence (P10109 61-184): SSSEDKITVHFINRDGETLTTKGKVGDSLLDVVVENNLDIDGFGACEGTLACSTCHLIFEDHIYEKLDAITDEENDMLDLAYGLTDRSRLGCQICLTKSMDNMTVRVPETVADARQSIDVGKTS

three cell lines = test: Pre-treatment with compounds that block known cell death pathways; assay type: cell-based
Description: To further establish which cell death pathways might be mediating the elesclomol induced copper-dependent cell death, a chemical approach was undertaken using compounds that block critical niches of known cell death pathways. […] As controls, ferroptosis-inducing GPX4 inhibitor (ML162) and apoptosis-inducing proteasome inhibitor (bortezomib) were used. […] Ferroptosis or apoptosis-altering compounds (as shown in the ML162 and bortezomib controls) had no effect on elesclomol-copper-induced cell death. […] The slight changes observed are most likely due to the copper chelating properties of the molecule. […] Given the absolute dependency and regulation of this cell death pathway by copper, this process is referred to as ‘cuproptosis’ for simplicity.

[4] = tested on: lipoyl-DLAT and lipoyl-DLST; test: Western blot of lipoylated proteins; assay type: cell-based
Description: CRISPR KO FDX1 cell lines or CRISPR KO LIAS cell lines were created and were assessed for levels of lipoylated proteins lipoyl-DLAT and lipoyl-DLST by Western Blot (FIG. 8).
Lipoic acid is a strong binder of copper, making it plausible that elesclomol bound copper could directly affect the lipoylated proteins. Indeed, the addition of elesclomol at concentrations as low as 10 nM reduced the levels of lipoylated proteins without dramatically affecting the protein levels (FIG. 36 and FIG. 37).
The levels of lipoylation decrease following treatment of A549 cells with 1 μM elesclomol (+CuCl2) (FIG. 26).

HCM18 cells = test: Viability of HCM18 control and Bak/Bax deleted cells; assay type: cell-based; settings: HCM18 Bak/Bax knock out vs control
Description: FIG. 32A-F show exemplary viability results of HCM18 control cells or […] deletion cells after treatment with indicate concentrations of different compounds (Pyrithione-Cu is Pyrithione-CuCl2 (1:1); TMT-Cu is TMT-CuCl2 (1:1); 8HQ-Cu is 8-HQ-CuCl2 (1:1); Disulfiram-Cu is Disulfiram-CuCl2 (1:1); NSC319726-Cu is NSC319726-Cu Cl2 1(1:1); AntiA is Antimycin A).
Both iron and copper can generate highly reactive hydroxyl radical (.OH) from O2.— and H2O2 in the cell via the Fenton reaction. In the case of iron, this can result in lipid radicals that induce ferroptosis, a non-apoptotic cell death. […] As such, to determine if elesclomol induced cell death is apoptotic, a genetic approach was undertaken using the HCM18 cells that have the crucial apoptosis effectors (Bak and Bax) knocked out (FIG. 29). […] However, the ability of elesclomol-copper to induce cell death was unaffected (FIG. 11). Other copper binding molecules were tested in these cell lines and in all cases the efficacy of these compounds was unaffected by the genetic perturbation of the apoptosis pathway (FIG. 32).

lipid peroxidation = test: Lipid peroxidation; assay type: cell-based
OVISE cells = test: Viability after LIAS or FDX1 gene deletion; assay type: cell-based
[5] = Tsvetkov et al., Nat Chem Bio, 2019

Oc1cccc2cccnc12 [8HQ, Oxyquinoline]
cell death promoted by Iron (MON cells; 10 μM FeCl2, FeCl3, to a lower extent than copper): also able to promote the cell death
sensitivity of 143B rho0 cells compared with parental 143B (143B rho0 cells): equally sensitive
effect of shift to mitochondrial metabolism on sensitivity (NCHIH2030 cells): rather mild

CCN(CC)C(=S)[S-].CCN(CC)C(=S)[S-].[Cu+2] [Cu-DDC]
effect of deletion of FDX1, protein lipoylation and PDH genes (A549 cell lines): promotes resistance

C/C(=N\NC(=S)N1CCC1)c1ccccn1 [NSC-319726]
cell death promoted by Zinc (MON cells; to a lower extent than copper): also able to promote the cell death
sensitivity of 143B rho0 cells compared with parental 143B (143B rho0 cells): equally sensitive

[O-][n+]1ccccc1[S-].[O-][n+]1ccccc1[S-].[Zn+2] [Pyrithione, Pyrithione Zinc]
cell death promoted by Zinc (MON cells; to a lower extent than copper): also able to promote the cell death
sensitivity of 143B rho0 cells compared with parental 143B (143B rho0 cells): equally sensitive
effect of shift to mitochondrial metabolism on sensitivity (NCHIH2030 cells): rather mild

CN(C)C(=S)SC(=S)N(C)C [TMT, tetra methyl thiuram monosulfide]
sensitivity of 143B rho0 cells compared with parental 143B (143B rho0 cells): equally sensitive
effect of shift to mitochondrial metabolism on sensitivity (NCHIH2030 cells): rather mild

CCN(CC)C(=S)SSC(=S)N(CC)CC [disulfiram, tetraethylthiuram disulfide]
sensitivity of tumors with increased levels of lipoic acid (tumors): sensitive
cell death promoted by Zinc (MON cells; to a lower extent than copper): also able to promote the cell death
sensitivity of 143B rho0 cells compared with parental 143B (143B rho0 cells): slightly more sensitive

CN(NC(=O)CC(=O)NN(C)C(=S)c1ccccc1)C(=S)c1ccccc1 [elesclomol, Elesclomol]
effect of decrease of FDX1 beyond certain threshold (ABC1 cells): increases the cell resistance
sensitivity in media lacking serum ([1]; completely reversed by addition of copper): increased resistance
elesclomol-induced cell death upon addition of copper ([1]; copper 1 μM in media or 1:1 ratio with compound): strongly augment
elesclomol induced cell death upon chelation of copper with tetrathiomolybdate (TTM) ([1]; multiple cell line models): completely blocks
variability of efficacy with copper supplementation ([1]; subset of ovarian cancer cell lines): strongly reduces the variability
effect of deletion of LIAS (A549 cells): sufficient to promote resistance
Phase II trial outcome ([2]; in combination with paclitaxel): may provide a cancer progression-free survival benefit
Phase III trial outcome ([2]; in vivo): failed
sensitivity of tumors with increased levels of lipoic acid (tumors): sensitive
sensitivity of biomarker-positive cells (Biomarker-positive cells): more sensitive
selectivity of metal binding (MON cells; among compounds of the cluster): most selective binding to copper
copper dependence of killing [3]: copper dependent
FDX1 activity in vitro (FDX1; [5]): inhibits FDX1 activity
binding to FDX1 (FDX1): direct target
binding to FDX1 (FDX1; listed as Elesclomol): directly binds
sensitivity of 143B rho0 cells compared with parental 143B (143B rho0 cells): slightly more sensitive
effect of shift to mitochondrial metabolism on sensitivity (NCHIH2030 cells): increasingly more sensitive
block of cell death by copper chelation (three cell lines; three cell lines tested, TTM): only copper chelation by TTM, was able to block
lipoyl-DLAT and lipoyl-DLST protein levels ([4]; 1 μM over 6 hours): decreased over time
levels of lipoylation ([4]; A549 cells, 1 μM (+CuCl2)): decrease
concentration that reduced the levels of lipoylated proteins ([4]; without dramatically affecting the protein levels): ≤ 10 nM

CN([N-]C(=O)CC(=O)[N-]N(C)C(=[SH+])c1ccccc1)C(=[SH+])c1ccccc1.[Cu] [elesclomol-Cu(II)]
efficacy in Bak/Bax deleted cells (HCM18 cells): unaffected
effect of deletion of FDX1, protein lipoylation and PDH genes (A549 cell lines): promotes resistance
block of cell death by pan-caspase inhibitors, Ferrostatin-1, Necrostatin-1, antioxidants (three cell lines; pre-treatment of cells): did not block
change in lipid peroxidation (lipid peroxidation): did not induce a profound change

CN1C(c2ccccc2)=[SH][Cu+2]23[SH]=C(c4ccccc4)N(C)[N]2C(=O)CC(=O)[N]13 [elesclomol-Cu(II)]
effect of deletion of LIAS or FDX1 in OVISE cells (OVISE cells): resistance
effect of deletion of FDX1 in A549 cells (A549 cells; A549): relative resistance
effect of deletion of FDX1 (A549 cells; multiple cell models): conferred resistance
biomarker selective cell killing after short exposure (Biomarker-positive cells; 2 hour exposure at 200 nM followed by washout): sufficient to effect biomarker selective cell killing
sensitivity of biomarker-positive cells (Biomarker-positive cells): sensitive
substrate of FDX1 (FDX1; [5]): neo-substrate of FDX1

CC(=O)O[C@H]1C(=O)[C@@]2(C)[C@H]([C@H](OC(=O)c3ccccc3)[C@]3(O)C[C@H](OC(=O)[C@H](O)[C@@H](NC(=O)c4ccccc4)c4ccccc4)C(C)=C1C3(C)C)[C@]1(OC(C)=O)CO[C@@H]1C[C@@H]2O [paclitaxel]
efficacy in Bak/Bax deleted cells (HCM18 cells): strongly inhibited
